In ChEMBL document CHEMBL1201862, “PubChem BioAssay data set” (2004):
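Exposure lasted 48 hours, with cells grown in 96-well plates and compounds tested at five concentrations. At the GI50, growth is halved.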 Active and inactive are the calls of the source. No stated cut-off is given here; in the data, active = GI50 up to about 1.1 µM and inactive = higher.

Key:
Assay in all cases: DTP human tumour cell line panel, 48 h
ACHN = system: ACHN
CAKI-1 = system: CAKI-1
HCC 2998 = system: HCC 2998
KM12 = system: KM12
M14 = system: M14
MDA-MB-231 = system: MDA-MB-231
NCI-H226 = system: NCI-H226
NCI-H522 = system: NCI-H522
NCI/ADR-RES = system: NCI/ADR-RES
OVCAR-5 = system: OVCAR-5
SN12C = system: SN12C
SR = system: SR
TK-10 = system: TK-10
DLD-1 = system: DLD-1
HCT-116 = system: HCT-116
LXFL 529 = system: LXFL 529
SNB-78 = system: SNB-78
UACC-62 = system: UACC-62
MCF7 = system: MCF7
HOP-18 = system: HOP-18

SMILES	GI50 (ACHN)	GI50 (CAKI-1)	GI50 (HCC 2998)	GI50 (KM12)	GI50 (M14)	GI50 (MDA-MB-231)	GI50 (NCI-H226)	GI50 (NCI-H522)	GI50 (NCI/ADR-RES)	GI50 (OVCAR-5)	GI50 (SN12C)	GI50 (SR)	GI50 (TK-10)	GI50 (DLD-1)	GI50 (HCT-116)	GI50 (LXFL 529)	GI50 (SNB-78)	GI50 (UACC-62)	GI50 (MCF7)	GI50 (HOP-18)
COC(=O)/C=C\n1ncc(=O)[nH]c1=O	> 100 µM (inactive)	> 100 µM (inactive)	> 100 µM (inactive)	> 10 µM (inactive)	> 100 µM (inactive)	> 100 µM (inactive)	> 100 µM (inactive)	52.1 µM (inactive)	> 100 µM (inactive)	> 100 µM (inactive)	> 100 µM (inactive)	> 10 µM (inactive)	> 100 µM (inactive)	–	–	–	–	–	–	–
Nc1nc(SCCC/C=C/I)nc2c1ncn2C1OC(COP(=O)(O)O)C(O)C1O (configuration not stated)	> 100 µM (inactive)	–	> 100 µM (inactive)	> 100 µM (inactive)	> 100 µM (inactive)	–	> 100 µM (inactive)	> 100 µM (inactive)	–	> 100 µM (inactive)	> 100 µM (inactive)	> 100 µM (inactive)	> 100 µM (inactive)	> 100 µM (inactive)	> 100 µM (inactive)	> 100 µM (inactive)	> 100 µM (inactive)	> 100 µM (inactive)	–	–
Nc1n[nH]c(Nc2ccc(Cl)cc2)c1P(=O)(c1ccccc1)c1ccccc1	34.4 µM (inactive)	44.8 µM (inactive)	24.7 µM (inactive)	17.4 µM (inactive)	21.3 µM (inactive)	19.1 µM (inactive)	24.3 µM (inactive)	20.2 µM (inactive)	20.7 µM (inactive)	18.8 µM (inactive)	–	53.1 µM (inactive)	30.1 µM (inactive)	–	–	–	–	22.2 µM (inactive)	29 µM (inactive)	–
C=C(C)C1Cc2c(c3ccccc3n(C)c2=O)O1 (configuration not stated)	> 100 µM (inactive)	> 100 µM (inactive)	–	–	> 100 µM (inactive)	–	> 100 µM (inactive)	> 100 µM (inactive)	–	–	> 100 µM (inactive)	–	> 100 µM (inactive)	> 100 µM (inactive)	–	> 100 µM (inactive)	> 100 µM (inactive)	> 100 µM (inactive)	–	> 100 µM (inactive)
CCCCCOc1ccc(/C=N\c2ccc(CCc3ccc(/N=C/c4ccc(OCCCCC)cc4)cc3)cc2)cc1	–	–	> 100 µM (inactive)	> 100 µM (inactive)	–	–	> 100 µM (inactive)	> 100 µM (inactive)	> 100 µM (inactive)	> 100 µM (inactive)	> 100 µM (inactive)	–	–	> 100 µM (inactive)	> 100 µM (inactive)	–	> 100 µM (inactive)	> 100 µM (inactive)	> 100 µM (inactive)	> 100 µM (inactive)
O=C(Nc1ccccc1)N1CCN(C(=O)Nc2ccccc2)C1=S	8.57 µM (inactive)	41.7 µM (inactive)	> 100 µM (inactive)	> 100 µM (inactive)	56.4 µM (inactive)	> 100 µM (inactive)	28.1 µM (inactive)	90.2 µM (inactive)	41.9 µM (inactive)	–	59.3 µM (inactive)	> 100 µM (inactive)	38.5 µM (inactive)	–	47.6 µM (inactive)	–	–	–	–	–
CN(CCO)/N=N/c1[nH]cnc1C(N)=O	> 100 µM (inactive)	–	> 100 µM (inactive)	> 100 µM (inactive)	37.8 µM (inactive)	–	> 100 µM (inactive)	> 100 µM (inactive)	–	> 100 µM (inactive)	> 100 µM (inactive)	39.7 µM (inactive)	49.2 µM (inactive)	> 100 µM (inactive)	49.5 µM (inactive)	> 100 µM (inactive)	> 100 µM (inactive)	83.8 µM (inactive)	–	–
Cn1c(=O)c2nc(NCCO)cnc2n(C)c1=O	> 100 µM (inactive)	95.5 µM (inactive)	64.6 µM (inactive)	27.2 µM (inactive)	68.2 µM (inactive)	–	–	21.5 µM (inactive)	–	> 100 µM (inactive)	> 100 µM (inactive)	42.8 µM (inactive)	> 100 µM (inactive)	> 100 µM (inactive)	62.8 µM (inactive)	36.5 µM (inactive)	> 100 µM (inactive)	37.8 µM (inactive)	–	–
N#CCCN(CCC#N)c1ccc(/C=C(/NC(=O)Nc2ccccc2Cl)NC(=O)c2cc([N+](=O)[O-])ccc2Cl)cc1	42.2 µM (inactive)	> 100 µM (inactive)	> 100 µM (inactive)	> 100 µM (inactive)	> 100 µM (inactive)	–	> 100 µM (inactive)	44.1 µM (inactive)	–	> 100 µM (inactive)	> 100 µM (inactive)	42.4 µM (inactive)	> 100 µM (inactive)	56.1 µM (inactive)	> 100 µM (inactive)	> 100 µM (inactive)	> 100 µM (inactive)	57.8 µM (inactive)	–	> 100 µM (inactive)
c1ccc2c(CCNC3=NCCO3)cccc2c1	> 10 µM (inactive)	> 10 µM (inactive)	> 10 µM (inactive)	> 10 µM (inactive)	> 10 µM (inactive)	> 10 µM (inactive)	> 10 µM (inactive)	> 10 µM (inactive)	> 10 µM (inactive)	> 10 µM (inactive)	–	> 10 µM (inactive)	> 10 µM (inactive)	–	> 10 µM (inactive)	–	–	> 10 µM (inactive)	> 10 µM (inactive)	–
CN(C)CCNC(=O)c1cccc2c(=O)c3ccccc3oc12	–	–	60 µM (inactive)	35.4 µM (inactive)	–	–	25.2 µM (inactive)	–	27.6 µM (inactive)	24.3 µM (inactive)	24.3 µM (inactive)	–	–	29.6 µM (inactive)	13.7 µM (inactive)	–	37.1 µM (inactive)	32.2 µM (inactive)	26.7 µM (inactive)	48 µM (inactive)
CCOC(=O)COc1ccc(OC)c2c1C(=O)CCC2	> 100 µM (inactive)	–	–	–	> 100 µM (inactive)	–	–	–	–	–	> 100 µM (inactive)	–	> 100 µM (inactive)	–	> 100 µM (inactive)	> 100 µM (inactive)	> 100 µM (inactive)	> 100 µM (inactive)	–	> 100 µM (inactive)
COc1cc(C2c3cc4c(cc3[C@@H](Nc3ccccc3)C3COC(=O)[C@H]23)OCO4)cc(OC)c1O (some centres not stated)	–	0.134 µM (active)	1.23 µM (inactive)	1.47 µM (inactive)	–	–	0.28 µM (active)	1.24 µM (inactive)	2.07 µM (inactive)	1.86 µM (inactive)	0.485 µM (active)	–	–	1.66 µM (inactive)	0.391 µM (active)	–	2.37 µM (inactive)	0.388 µM (active)	0.0715 µM (active)	0.853 µM (active)
